The structures appear in SMILES notation. Marks after values point to notes of the source that are not given here.

The nature of data set [1]: Cardiovascular safety pharmacology study in awake telemeterized dogs. In kind it is in vivo, beagle dogs. To be noted: single oral doses of 30, 60, and 120 mg/kg, male dogs.
Data set [2] deals with MDA MB 468 xenografts. Put plainly: Tumor perfusion by DCE-MRI in MDA MB 468 xenografts. Format: in vivo, athymic nude mice. To be noted: 10 mg/kg oral QD. The text has this:
Experimental Design. Dynamic contrast-enhanced magnetic resonance imaging can be used preclinically and clinically to evaluate the anatomy of soft tissues, including the identification and accurate measurement of tumor volumes. In addition, evaluation of the intratumoral pharmacokinetics of contrast agents containing gadolinium can be used to measure vascular permeability characteristics. Coupling gadopentetate dimeglumine gadolinium to a […] like bovine serum albumin can reveal information about the necrotic (non-perfused) and non-necrotic (perfused) tumor volumes, and the percentage of vascular blood volume relative to the perfused tumor volume (known as the fractional blood volume [fBV]). Use of a […] tracer, gadopentetate dimeglumine, can reveal information regarding the volume transfer coefficient (K^trans), a variable that represents a combination of vascular permeability, vascular surface area, and blood flow.
Before each DCE-MRI scan, mice were injected intravenously with gadolinium-containing contrast dyes (bovine serum albumin-gadopentetate dimeglumine conjugate at ˜0.03 mmol/kg followed by gadopentetate dimeglumine at ˜0.2 mmol/kg). Baseline DCE-MRI measurements were taken on Day −1, test Compounds were administered on Day 0 through Day 5, and additional DCE-MRI measurements were taken on Days 1, 3, and 5. Image analyses were conducted with customized software. Total tumor volumes were measured by semi-automatically segmenting a region of interest around an anatomical image of the tumor. Tumor volumes of necrotic and non-necrotic tissues were measured by applying the same semi-automated segmentation process to a contrast dyed image. fBV and K^trans were computed using a standard Kety PK model.

Data set [3] relates to LNCaP xenografts. Put plainly: Tumor growth inhibition in LNCaP prostate cancer xenografts. Format: in vivo, athymic nude mice. As for the experimental part: Experimental Design. The LNCaP cell line is derived from a lymph node metastasis.
Tumor size was measured by calipers at periodic intervals during the study. When the mean tumor size in a mouse exceeded 1500 mm^3, mice in that group were sacrificed and both tumor and plasma were assayed for pathologic VEGF concentration as described in Section 9.1.1.1.

Data set [4] relates to HT1080 xenografts. Put plainly: Time course of tumor size and plasma human VEGF in HT1080 xenografts. In kind it is in vivo, athymic nude mice. The method, then: Experimental Design. HT1080 cells (5×10^6 cells/mouse) were implanted subcutaneously in male athymic nude mice.
Tumor size was measured by calipers immediately pre-treatment and at the time of sacrifice on Day 1, 2, or 3 (5 mice per group per day). At sacrifice, the plasma was collected for assay of pathologic human VEGF concentration using an ELISA that recognizes human VEGF121 and VEGF165 (as described in Section 9.1.1.1).

Data set [5] is described as follows: Micronucleus study in rats by the oral route. In kind it is in vivo. As for the experimental part: Genotoxicity was assessed in a battery of in vitro and in vivo studies that included a bacterial reverse mutation study, a chromosome aberration study in Chinese hamster ovary (CHO) cells, and a micronucleus study in rats by the oral route. The in vitro studies were performed in the presence and absence of an exogenous metabolic activation system.

In data set [6] the test system is HT1080 cells. Put plainly: Anchorage-independent colony formation of HT1080 cells in agar. In kind it is cell-based, human. The conditions noted are these: 10 and 50 nM, day 18; not statistically significant. As for the experimental part: Experimental Design. HT1080 cells growing in monolayer were trypsinized, counted and suspended in a 0.35% agar noble/1× complete DMEM solution at 37° C. at a concentration of 2,500 cells/mL. One ml of this solution was layered over a semisolid base consisting of 0.5 mL of 0.75% agar noble/1× complete DMEM in a six well tissue culture plate. […] Tissue culture plates were then returned to the incubator and colonies were allowed to form. […] On day 18 the vehicle-treated wells had colonies of sufficient size to count (>50 cells/colony). At this time, for increased visualization, 1.5 mL of a 2× working volume of (3-(4,5-Dimethylthiazol-2-yl)-2,5-diphenyltetrazolium bromide, a tetrazole) (MTT, Invitrogen, Cat #C35007) was added and the plates were returned to the incubator for 2 hours until colonies were stained by conversion of the MTT to purple formazan crystals. Colonies were then visually counted under a dissecting microscope.

For data set [7], the target named is human-ether-a-go-go-related gene (hERG) current (Homo sapiens, UniProt Q12809). Nature of the data set: Higher throughput hERG assay. In kind it is biochemical. Background: The hERG channel carries a current that helps repolarise heart muscle cells.
Data set [8] is described as follows: Respiratory safety pharmacology study in awake telemeterized dogs. To be noted: single oral doses of 30, 60, and 120 mg/kg, male dogs. Format: in vivo, beagle dogs.
Data set [9] can be described thus: Quantitative whole-body autoradiography tissue distribution of 14C-Compound #10. To be noted: rats, single oral 50 mg/kg. In kind it is in vivo.
For data set [10], the system named is HT1080 spheroids. Put plainly: 3-dimensional growth of HT1080 spheroids (DNA content, BrdU, morphology). In kind it is cell-based, human. The method, then: Experimental Design. HT1080 cells grown as a monolayer were trypsinized and seeded onto a 0.75% agar noble base to prevent the cells from attaching to the bottom of the tissue culture plate and to allow/promote the cells to self-adhere and grow as 3-dimensional spheroids. […] The cells were incubated for 22 and 45 hours at 37° C., in the presence of a 10% CO2 atmosphere. Spheroids were visually checked daily for morphological changes and a medium was replenished two times per week. […] These pulse labeled spheroids were then harvested, washed and trypsinized (triple action solution, Gibco), pelleted and prepared for FACS analysis with a FITC BrdU Flow Kit, (BD Pharmingen). Cells were fixed and permeabilized with paraformadehyde and DNA stained with 7-AAD followed by incubation with an antibody which specifically recognizes […] incorporated into DNA. As described in Section 9.3.1.4. Cells were analyzed and sorted by 7-AAD signal (DNA content) to determine cell cycle phase, and BrdU content (percent actively synthesizing DNA).
Spheroids, prepared as above, were treated with either vehicle alone (0.5% DMSO v/v final) added to the media or a Compounds provided herein (10 nM or 50 nM final concentration) in media to which vehicle has been added.

In data set [11] the test system is HT1080 cells. Put plainly: Migration of cells out of re-plated HT1080 spheroids. In kind it is cell-based, human. The method, then:
Experimental Design. […] Pictures were then taken 48 hours to assess the migration and proliferation of the cells across the well's surface.

human-ether-a-go-go-related gene (hERG) current, sequence (Q12809 whole entry): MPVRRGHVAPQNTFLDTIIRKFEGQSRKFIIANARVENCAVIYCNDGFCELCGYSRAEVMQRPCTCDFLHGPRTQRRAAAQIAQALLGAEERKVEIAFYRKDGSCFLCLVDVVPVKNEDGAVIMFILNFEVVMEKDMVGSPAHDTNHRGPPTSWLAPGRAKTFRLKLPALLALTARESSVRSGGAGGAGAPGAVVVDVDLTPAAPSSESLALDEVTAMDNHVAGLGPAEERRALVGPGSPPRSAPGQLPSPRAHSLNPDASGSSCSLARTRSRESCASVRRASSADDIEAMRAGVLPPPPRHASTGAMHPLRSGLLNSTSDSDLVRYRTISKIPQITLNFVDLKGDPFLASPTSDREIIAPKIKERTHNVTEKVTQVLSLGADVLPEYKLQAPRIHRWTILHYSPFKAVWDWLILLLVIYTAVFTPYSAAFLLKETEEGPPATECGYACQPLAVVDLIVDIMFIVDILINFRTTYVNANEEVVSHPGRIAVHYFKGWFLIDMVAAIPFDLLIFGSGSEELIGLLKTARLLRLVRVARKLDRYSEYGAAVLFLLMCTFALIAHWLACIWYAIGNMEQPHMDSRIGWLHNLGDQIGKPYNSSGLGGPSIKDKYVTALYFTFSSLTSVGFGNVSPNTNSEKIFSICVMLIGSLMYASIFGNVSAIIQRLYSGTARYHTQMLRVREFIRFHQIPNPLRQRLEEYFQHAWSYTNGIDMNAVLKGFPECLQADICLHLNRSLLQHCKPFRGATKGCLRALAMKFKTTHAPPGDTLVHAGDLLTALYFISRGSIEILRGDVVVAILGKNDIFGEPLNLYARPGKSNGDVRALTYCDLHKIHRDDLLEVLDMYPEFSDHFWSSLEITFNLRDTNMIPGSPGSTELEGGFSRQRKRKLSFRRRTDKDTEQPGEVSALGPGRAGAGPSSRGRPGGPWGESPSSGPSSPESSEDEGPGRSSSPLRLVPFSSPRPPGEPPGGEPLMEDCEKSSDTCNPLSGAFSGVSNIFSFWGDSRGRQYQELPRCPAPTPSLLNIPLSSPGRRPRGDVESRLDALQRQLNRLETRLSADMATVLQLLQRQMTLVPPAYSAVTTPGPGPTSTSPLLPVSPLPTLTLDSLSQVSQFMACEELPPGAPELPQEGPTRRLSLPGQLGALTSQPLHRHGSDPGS

Take `COc1ccc(C2c3[nH]c4ccc(Cl)cc4c3CCN2C(=O)Oc2ccc(Cl)cc2)cc1` (racemic) [Compound #10]: the “cardiovascular or electrocardiographic (including QT interval) parameters” value in [1] is reported as “no meaningful changes”. In data set [2] (Day -1 to Day 5), the “mean K^trans in non-necrotic tissue (in words)” value is “decreased”; the “mean non-necrotic tumor volume (in words)” value was “decreased”; the “mean total tumor volume (DCE-MRI), change (in words)” value is “little mean change”. For the same molecule, the “mean necrotic (non perfused) tumor volume (in words)” value in [2] (significant by Day 1) was “rapidly increased”. In data set [2] (significant vs vehicle on Day 5), the “mean tumor fBV in non-necrotic tissue (in words)” value is on record as “declined after Day 3”. Further, the “time to tumor progression (time to reach ≧1000 mm^3) (in words)” value in data set [3] (10 mg/kg M-W-F) is “prolonged”. Also, the “intratumoral VEGF concentrations adjusted for tumor size (in words)” value in data set [3] (10 mg/kg M-W-F, day of sacrifice) is on record as “reduced”. In addition, the “Mean % Inhibition of Intratumoral VEGF vs Vehicle at Sacrifice” value in [3] (LNCaP xenografts in male nude mice, 10 mg/kg oral M-W-F, adjusted for tumor size) is recorded as 51^d %. For the same molecule, the “pathologic plasma human VEGF concentrations (in words)” value in [4] (Days 2 and 3, 10 mg/kg oral QD) is reported as “continued to decline”. Moreover, in data set [4] (by Day 1), the “pathologic plasma human VEGF levels (in words)” value was “numerically lower than in control animals”. Besides, in data set [4] (by Day 3 of treatment), the “reducing tumor derived plasma VEGF levels, comparison (in words)” value is “as active as bevacizumab and more effective than doxorubicin”. In addition, the genotoxic effects entry in data set [5] is reported as “no evidence of genotoxic effects”. The “number of colonies formed (in words)” value in [6] was “modest trend toward a reduced number of colonies”. In addition, the “inhibition of hERG current (in words)” value in [7] is “negative for meaningful inhibition”. The “respiratory rate, core body temperature, arterial blood gases, arterial pH, arterial bicarbonate” value in data set [8] is given as “no dose dependent or biologically significant changes”. Also, in [9], the “blood-brain barrier penetration (in words)” value is recorded as “penetrates the blood-brain barrier” and the signs of toxicity result is “no overt signs of toxicity”. For the same molecule, the “percentage of cells that incorporated BrdU (cells in S-phase) (in words)” value in [10] (HT1080 spheroids, 24 or 48 hours) is reported as “not significantly altered”. Moreover, the “spheroid morphology (in words)” value in data set [10] (maintained in the presence of compound for three weeks, data not shown) was “no obvious morphological changes”. Also, the “cell cycle distribution of HT1080 spheroids (in words)” value in [10] (treated for 24 hours) is given as “not affected”. The “cell cycle distribution of HT1080 spheroids (in words)” value in [10] (treated for 48 hours) is “not affected”. Further, the “migration of cells out of the spheroid (in words)” value in data set [11] (control spheroids re-plated in the presence of 50 nM) was “blocked in their ability to migrate out of the spheroid”. The “proliferative and migratory capacity after exposure (in words)” value in data set [11] (three-week exposure at 50 nM, re-plated in the absence of the compound) is listed as “does not reduce either the proliferative or the migratory capacity”.
